Measurements taken from patent US8921362B2, “6,7-dialkoxy quinazoline derivatives and methods of treating drug resistant and other tumors” (Natco Pharma Limited, priority 2008, dated 2014).

Experiments:
Assay in all cases: KinomeScan
Format in all cases: binding
Conditions in all cases: read-out: % Ctrl @ 10000 nM
EPHA7 = target: T1, EPHA7 (Homo sapiens, UniProt Q15375)
T1 construct: purchased Ambit Biosciences Corp; host or cells: T7 phage in E. coli host derived from BL21
Summary of the method: (§1)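 qPCR titer; phage-tagged kinase vs bead ligand; compound diluted from 40× DMSO stock; 2.5% DMSO control.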

[1] = target: T2, RPS6KA5(Kin.Dom.-1-N-terminal) (Homo sapiens, UniProt O75582)
T2 construct: RPS6KA5(Kin.Dom.-1-N-terminal); host or cells: E. coli host derived from BL21, T7 phage display
Summary of the method: as §1

PLK3 = target: T3, PLK3 (Homo sapiens, UniProt Q9H4B4)
T3 construct: host or cells: T7 phage in E. coli host derived from BL21
Summary of the method: as §1

[2] = target: T4, RPS6KA1(Kin.Dom.-1-N-terminal) (Homo sapiens, UniProt Q15418)
T4 construct: RPS6KA1(Kin.Dom.-1-N-terminal); host or cells: E. coli host derived from BL21, T7 phage display
Summary of the method: as §1

IKK-beta = target: T5, IKK-beta (Homo sapiens, UniProt O14920)
T5 construct: host or cells: T7 phage grown in E. coli host derived from BL21
Summary of the method: as §1

DDR1 = target: T6, DDR1 (Homo sapiens, UniProt Q08345)
T6 construct: purchased Ambit Biosciences Corp (KinomeScan); host or cells: T7 phage in E. coli host derived from BL21
Summary of the method: as §1

WEE2 = target: T7, WEE2 (Homo sapiens, UniProt P0C1S8)
T7 construct: host or cells: E. coli host derived from BL21, T7 phage
Summary of the method: as §1

EGFR(G719S) = target: T8, EGFR(G719S) (Homo sapiens, UniProt P00533, G719S)
T8 construct: purchased Ambit Biosciences Corp (KinomeScan); host or cells: T7 phage in E. coli host derived from BL21
Summary of the method: as §1

PAK7 = target: T9, PAK7 (Homo sapiens, UniProt Q9P286)
T9 construct: host or cells: E. coli host derived from BL21, infected with T7 phage
Summary of the method: as §1

FGFR1 = target: T10, FGFR1 (Homo sapiens, UniProt P11362)
T10 construct: host or cells: T7 phage in E. coli host derived from BL21
Summary of the method: as §1

ERK3 = target: T11, ERK3 (Homo sapiens, UniProt Q16659)
T11 construct: purchased Ambit Biosciences Corp; host or cells: T7 phage in E. coli host derived from BL21
Summary of the method: as §1

CAMKK1 = target: T12, CAMKK1 (Homo sapiens, UniProt Q8N5S9)
T12 construct: host or cells: T7 phage in E. coli host derived from BL21
Summary of the method: as §1

DDR2 = target: T13, DDR2 (Homo sapiens, UniProt Q16832)
T13 construct: purchased Ambit Biosciences Corp (KinomeScan); host or cells: T7 phage in E. coli host derived from BL21
Summary of the method: as §1

STK36 = target: T14, STK36 (Homo sapiens, UniProt Q9NRP7)
T14 construct: host or cells: T7 phage grown in E. coli (BL21-derived)
Summary of the method: as §1

TAK1 = target: T15, TAK1 (Homo sapiens, UniProt O43318)
T15 construct: host or cells: T7 phage grown in E. coli (BL21-derived)
Summary of the method: as §1

FRK = target: T16, FRK (Homo sapiens, UniProt P42685)
T16 construct: host or cells: T7 phage in E. coli host derived from BL21
Summary of the method: as §1

MLCK = target: T17, MLCK (Homo sapiens, UniProt Q32MK0)
T17 construct: host or cells: T7 phage grown in E. coli host derived from BL21
Summary of the method: as §1

CAMK2B = target: T18, CAMK2B (Homo sapiens, UniProt Q13554)
T18 construct: host or cells: E. coli host derived from BL21
Summary of the method: as §1

MAP4K4 = target: T19, MAP4K4 (Homo sapiens, UniProt O95819)
T19 construct: host or cells: E. coli host derived from the BL21 strain, infected with T7 phage
Summary of the method: as §1

ZAP70 = target: T20, ZAP70 (Homo sapiens, UniProt P43403)
T20 construct: host or cells: T7 phage grown in an E. coli host derived from BL21
Summary of the method: as §1

TNNI3K = target: T21, TNNI3K (Homo sapiens, UniProt Q59H18)
T21 construct: host or cells: E. coli host derived from BL21, T7 phage
Summary of the method: as §1

IKK-epsilon = target: T22, IKK-epsilon (Homo sapiens, UniProt Q14164)
T22 construct: host or cells: T7 phage grown in E. coli host derived from BL21
Summary of the method: as §1

CSF1R = target: T23, CSF1R (Homo sapiens, UniProt P07333)
T23 construct: host or cells: T7 phage in E. coli host derived from BL21
Summary of the method: as §1

MST1R = target: T24, MST1R (Homo sapiens, UniProt Q04912)
T24 construct: host or cells: T7 phage grown in E. coli host derived from BL21
Summary of the method: as §1

CAMK1G = target: T25, CAMK1G (Homo sapiens, UniProt Q96NX5)
T25 construct: host or cells: E. coli host derived from BL21
Summary of the method: as §1

MERTK = target: T26, MERTK (Homo sapiens, UniProt Q12866)
T26 construct: host or cells: E. coli host derived from the BL21 strain, infected with T7 phage
Summary of the method: as §1

SRPK3 = target: T27, SRPK3 (Homo sapiens, UniProt Q9UPE1)
T27 construct: host or cells: T7 phage grown in E. coli (BL21-derived)
Summary of the method: as §1

ABL1(F317I) = target: T28, ABL1(F317I) (Homo sapiens, UniProt P00519, F317I)
T28 construct: host or cells: E. coli (BL21-derived), T7 phage lysate
Summary of the method: as §1

[3] = target: T29, TYK2(JH1domain-catalytic) (Homo sapiens, UniProt P29597)
T29 construct: TYK2(JH1domain-catalytic); host or cells: E. coli host derived from BL21, T7 phage
Summary of the method: as §1

DMPK2 = target: T30, DMPK2 (Homo sapiens, UniProt Q6DT37)
T30 construct: purchased Ambit Biosciences Corp (KinomeScan); host or cells: T7 phage in E. coli host derived from BL21
Summary of the method: as §1

DYRK1B = target: T31, DYRK1B (Homo sapiens, UniProt Q9Y463)
T31 construct: purchased Ambit Biosciences Corp (KinomeScan); host or cells: T7 phage in E. coli host derived from BL21
Summary of the method: as §1

T5 sequence (O14920 whole entry): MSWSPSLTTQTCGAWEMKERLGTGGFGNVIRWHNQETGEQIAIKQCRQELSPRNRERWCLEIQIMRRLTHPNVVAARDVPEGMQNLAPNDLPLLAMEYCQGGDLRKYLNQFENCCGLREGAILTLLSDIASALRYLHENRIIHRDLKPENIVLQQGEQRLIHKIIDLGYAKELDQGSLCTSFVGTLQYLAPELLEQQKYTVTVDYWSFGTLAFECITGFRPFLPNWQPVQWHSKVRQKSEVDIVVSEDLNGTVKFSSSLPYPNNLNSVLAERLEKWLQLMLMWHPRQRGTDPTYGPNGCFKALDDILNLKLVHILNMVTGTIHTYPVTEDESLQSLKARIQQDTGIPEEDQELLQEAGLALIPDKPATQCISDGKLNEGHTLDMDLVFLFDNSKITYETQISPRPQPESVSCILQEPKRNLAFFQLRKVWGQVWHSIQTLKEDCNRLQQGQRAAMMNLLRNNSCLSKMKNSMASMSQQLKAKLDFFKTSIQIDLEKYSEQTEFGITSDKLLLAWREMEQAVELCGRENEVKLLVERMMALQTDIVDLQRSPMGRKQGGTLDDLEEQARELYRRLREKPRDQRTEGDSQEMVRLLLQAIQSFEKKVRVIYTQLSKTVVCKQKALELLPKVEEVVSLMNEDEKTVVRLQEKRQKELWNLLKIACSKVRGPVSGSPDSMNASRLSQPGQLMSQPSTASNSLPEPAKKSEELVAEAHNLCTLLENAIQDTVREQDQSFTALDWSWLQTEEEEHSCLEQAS
T9 sequence (Q9P286 whole entry): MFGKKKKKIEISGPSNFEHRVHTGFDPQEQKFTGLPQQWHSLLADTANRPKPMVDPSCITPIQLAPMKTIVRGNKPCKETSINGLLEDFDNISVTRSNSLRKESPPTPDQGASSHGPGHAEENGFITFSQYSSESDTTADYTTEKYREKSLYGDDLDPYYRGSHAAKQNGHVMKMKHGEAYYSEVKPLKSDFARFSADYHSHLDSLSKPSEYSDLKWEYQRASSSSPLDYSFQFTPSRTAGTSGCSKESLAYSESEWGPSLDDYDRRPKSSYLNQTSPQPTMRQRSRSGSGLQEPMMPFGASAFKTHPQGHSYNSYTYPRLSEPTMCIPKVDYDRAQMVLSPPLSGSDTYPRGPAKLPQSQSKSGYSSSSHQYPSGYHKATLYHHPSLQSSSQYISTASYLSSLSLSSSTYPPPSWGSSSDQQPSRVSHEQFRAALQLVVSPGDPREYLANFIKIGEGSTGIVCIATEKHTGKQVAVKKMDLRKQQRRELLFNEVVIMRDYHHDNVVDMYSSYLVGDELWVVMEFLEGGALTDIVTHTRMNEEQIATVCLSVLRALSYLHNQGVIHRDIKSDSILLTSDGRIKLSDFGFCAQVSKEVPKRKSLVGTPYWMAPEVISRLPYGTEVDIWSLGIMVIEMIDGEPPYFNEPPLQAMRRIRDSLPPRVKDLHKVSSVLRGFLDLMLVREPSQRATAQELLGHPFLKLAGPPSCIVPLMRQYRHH
T2 sequence (O75582 49-318 limits assumed): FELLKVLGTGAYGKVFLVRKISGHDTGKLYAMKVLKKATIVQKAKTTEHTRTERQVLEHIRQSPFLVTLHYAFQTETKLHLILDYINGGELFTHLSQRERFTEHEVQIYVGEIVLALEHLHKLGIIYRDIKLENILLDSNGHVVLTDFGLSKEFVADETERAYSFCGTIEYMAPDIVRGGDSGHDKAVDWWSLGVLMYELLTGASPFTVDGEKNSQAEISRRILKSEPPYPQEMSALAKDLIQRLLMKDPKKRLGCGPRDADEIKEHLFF
T25 sequence (Q96NX5 whole entry): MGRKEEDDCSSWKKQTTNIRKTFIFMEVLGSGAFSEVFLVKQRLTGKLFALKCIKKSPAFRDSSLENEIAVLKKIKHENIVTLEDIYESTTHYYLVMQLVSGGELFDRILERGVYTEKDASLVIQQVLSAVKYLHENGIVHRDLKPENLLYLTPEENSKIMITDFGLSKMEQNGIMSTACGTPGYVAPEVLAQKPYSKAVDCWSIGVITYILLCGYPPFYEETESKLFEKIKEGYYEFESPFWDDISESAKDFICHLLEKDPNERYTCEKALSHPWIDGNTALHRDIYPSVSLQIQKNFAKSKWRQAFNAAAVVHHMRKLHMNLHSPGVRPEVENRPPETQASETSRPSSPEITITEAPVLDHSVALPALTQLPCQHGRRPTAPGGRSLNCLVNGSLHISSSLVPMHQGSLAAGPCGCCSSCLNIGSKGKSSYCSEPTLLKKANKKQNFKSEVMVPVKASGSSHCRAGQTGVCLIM
T7 sequence (P0C1S8 whole entry): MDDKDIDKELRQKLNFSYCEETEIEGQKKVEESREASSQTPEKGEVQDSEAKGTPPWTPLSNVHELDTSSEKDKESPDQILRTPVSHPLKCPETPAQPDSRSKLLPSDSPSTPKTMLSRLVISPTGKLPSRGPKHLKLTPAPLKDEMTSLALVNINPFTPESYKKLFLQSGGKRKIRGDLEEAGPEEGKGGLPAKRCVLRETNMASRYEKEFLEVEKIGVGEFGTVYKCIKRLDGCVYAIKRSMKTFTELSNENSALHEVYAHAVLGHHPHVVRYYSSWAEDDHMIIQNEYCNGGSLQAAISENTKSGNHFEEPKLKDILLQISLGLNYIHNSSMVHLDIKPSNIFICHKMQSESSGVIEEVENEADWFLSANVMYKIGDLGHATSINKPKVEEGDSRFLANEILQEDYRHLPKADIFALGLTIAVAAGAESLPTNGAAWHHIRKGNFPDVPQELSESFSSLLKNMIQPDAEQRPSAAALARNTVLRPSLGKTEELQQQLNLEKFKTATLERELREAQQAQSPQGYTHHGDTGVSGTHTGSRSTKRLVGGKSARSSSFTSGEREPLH
T11 sequence (Q16659 whole entry): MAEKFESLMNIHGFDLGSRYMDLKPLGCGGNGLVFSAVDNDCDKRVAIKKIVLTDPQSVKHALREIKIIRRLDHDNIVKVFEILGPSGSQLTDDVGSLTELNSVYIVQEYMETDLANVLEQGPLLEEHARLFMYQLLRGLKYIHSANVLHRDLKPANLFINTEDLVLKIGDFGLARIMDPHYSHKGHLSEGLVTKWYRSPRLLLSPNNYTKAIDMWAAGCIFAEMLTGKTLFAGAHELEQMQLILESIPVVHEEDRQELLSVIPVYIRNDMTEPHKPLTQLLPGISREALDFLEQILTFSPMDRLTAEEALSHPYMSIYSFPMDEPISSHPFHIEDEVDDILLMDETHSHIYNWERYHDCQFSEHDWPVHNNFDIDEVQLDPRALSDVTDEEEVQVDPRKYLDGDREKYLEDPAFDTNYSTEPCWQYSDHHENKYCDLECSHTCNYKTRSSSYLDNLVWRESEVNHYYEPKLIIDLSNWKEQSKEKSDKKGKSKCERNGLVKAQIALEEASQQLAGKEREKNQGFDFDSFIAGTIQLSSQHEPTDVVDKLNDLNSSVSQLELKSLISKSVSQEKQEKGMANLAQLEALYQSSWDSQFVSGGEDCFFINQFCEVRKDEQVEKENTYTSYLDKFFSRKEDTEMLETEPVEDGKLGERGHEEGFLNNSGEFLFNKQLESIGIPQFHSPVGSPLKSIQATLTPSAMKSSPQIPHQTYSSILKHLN
T24 sequence (Q04912 25-1400): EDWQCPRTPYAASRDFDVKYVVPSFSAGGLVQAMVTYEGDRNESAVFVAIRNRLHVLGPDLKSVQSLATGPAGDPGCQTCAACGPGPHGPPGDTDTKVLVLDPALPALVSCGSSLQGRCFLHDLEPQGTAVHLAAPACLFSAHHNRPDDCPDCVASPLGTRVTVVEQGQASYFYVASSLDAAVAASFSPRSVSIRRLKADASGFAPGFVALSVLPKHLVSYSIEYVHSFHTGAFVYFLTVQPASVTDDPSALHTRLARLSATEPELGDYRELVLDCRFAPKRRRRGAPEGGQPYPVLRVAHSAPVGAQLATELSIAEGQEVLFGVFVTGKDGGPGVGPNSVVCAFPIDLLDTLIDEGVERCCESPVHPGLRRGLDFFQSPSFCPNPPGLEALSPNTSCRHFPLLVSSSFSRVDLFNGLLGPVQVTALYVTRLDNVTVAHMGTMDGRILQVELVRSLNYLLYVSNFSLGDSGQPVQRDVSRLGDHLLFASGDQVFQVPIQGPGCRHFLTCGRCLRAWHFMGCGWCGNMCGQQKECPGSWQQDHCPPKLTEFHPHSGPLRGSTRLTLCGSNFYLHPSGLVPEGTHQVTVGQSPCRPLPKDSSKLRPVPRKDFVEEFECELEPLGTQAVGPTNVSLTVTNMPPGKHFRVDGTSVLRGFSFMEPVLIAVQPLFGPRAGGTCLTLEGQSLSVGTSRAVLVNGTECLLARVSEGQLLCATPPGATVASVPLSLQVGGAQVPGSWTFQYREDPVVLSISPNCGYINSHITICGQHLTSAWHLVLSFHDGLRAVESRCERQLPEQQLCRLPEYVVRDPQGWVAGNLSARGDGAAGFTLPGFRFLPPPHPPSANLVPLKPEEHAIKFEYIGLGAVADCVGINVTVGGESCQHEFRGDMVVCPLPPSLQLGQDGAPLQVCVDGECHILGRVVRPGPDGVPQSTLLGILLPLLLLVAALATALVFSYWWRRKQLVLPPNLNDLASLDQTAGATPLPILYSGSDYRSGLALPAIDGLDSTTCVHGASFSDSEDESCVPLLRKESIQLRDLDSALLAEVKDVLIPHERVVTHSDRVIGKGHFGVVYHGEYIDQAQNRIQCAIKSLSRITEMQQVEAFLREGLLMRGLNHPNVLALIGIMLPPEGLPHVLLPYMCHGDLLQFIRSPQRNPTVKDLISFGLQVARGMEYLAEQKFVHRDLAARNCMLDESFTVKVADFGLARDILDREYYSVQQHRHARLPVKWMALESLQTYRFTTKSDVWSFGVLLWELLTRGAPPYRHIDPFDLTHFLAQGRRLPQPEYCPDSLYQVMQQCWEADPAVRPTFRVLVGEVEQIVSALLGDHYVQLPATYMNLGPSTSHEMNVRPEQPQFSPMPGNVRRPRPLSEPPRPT

C#Cc1cccc(Nc2ncnc3cc(OC)c(OCCCN4CCOCC4)cc23)c1 [NRC-2694, N-(3-ethynylphenyl)-7-methoxy-6-[3-(4-morpholinyl)propoxy]-4-quinazolinamine]
remaining binding at 10 µM (EPHA7): 70% | remaining binding at 10 µM [1]: 85% | remaining binding at 10 µM (PLK3): 97% | remaining binding at 10 µM [2]: 100% | remaining binding at 10 µM (IKK-beta): 51% | remaining binding at 10 µM (DDR1): 39% | remaining binding at 10 µM (WEE2): 53% | remaining binding at 10 µM (EGFR(G719S)): 0% | remaining binding at 10 µM (PAK7): 63% | remaining binding at 10 µM (FGFR1): 64% | remaining binding at 10 µM (ERK3): 10% | remaining binding at 10 µM (CAMKK1): 71% | remaining binding at 10 µM (DDR2): 76% | remaining binding at 10 µM (STK36): 4.6% | remaining binding at 10 µM (TAK1): 66% | remaining binding at 10 µM (FRK): 10% | remaining binding at 10 µM (MLCK): 77% | remaining binding at 10 µM (CAMK2B): 77% | remaining binding at 10 µM (MAP4K4): 20% | remaining binding at 10 µM (ZAP70): 100% | remaining binding at 10 µM (TNNI3K): 7.6% | remaining binding at 10 µM (IKK-epsilon): 75% | remaining binding at 10 µM (CSF1R): 50% | remaining binding at 10 µM (MST1R): 94% | remaining binding at 10 µM (CAMK1G): 75% | remaining binding at 10 µM (MERTK): 48% | remaining binding at 10 µM (SRPK3): 38% | remaining binding at 10 µM (ABL1(F317I)): 48% | remaining binding at 10 µM [3]: 97% | remaining binding at 10 µM (DMPK2): 61% | remaining binding at 10 µM (DYRK1B): 66%
